# Measured values as given in patent US20150284674A1, “CAMPYLOBACTER BACTERIA AND DETECTION” (priority 2012, published 2015).
# “Also recorded” adds a separate entry of the source.
# Key:
# C. sputorum = settings: taxon 22: C. sputorum; cited from earlier work
# C. lari = settings: taxon 18: C. lari; cited from earlier work
# [1] = test system: Campylobacter novel strains; experiment: Antimicrobial susceptibility testing by agar dilution method (MIC); settings: Campylobacter;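 further: agar dilution MIC on HBA, used in place of the BSAC-recommended Iso-sensitest agar, across a panel of 14 antimicrobials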
# Procedure: Antimicrobial susceptibility testing was performed using the agar dilution method for the Campylobacter novel strains against 14 antimicrobials. […] As the strains were unable to grow on the Iso-sensitest agar (ISA) recommended by the BSAC guidelines, HBA (Table 1) was used as an alternative media.
# C. cuniculurom = settings: taxon 5: C. cuniculurom; cited from earlier work
# [2] = test system: C. fetus subsp. venerealis; settings: taxon 8: C. fetus subsp. venerealis; cited from earlier work
# C. gracilis = settings: taxon 9: C. gracilis; cited from earlier work
# C. hominus = settings: taxon 11: C. hominus; cited from earlier work
# C. upsaliensis = settings: taxon 23: C. upsaliensis; cited from earlier work
# C. jejuni subsp. Jejuni = settings: taxon 16: C. jejuni subsp. Jejuni; cited from earlier work
# C. coli = settings: taxon 3: C. coli; cited from earlier work
# C. avium sp. Nov = settings: taxon 1: C. avium sp. Nov; cited from earlier work
# C. insulaenigrae = settings: taxon 14: C. insulaenigrae; cited from earlier work
# C. jejuni subsp. Doylei = settings: taxon 15: C. jejuni subsp. Doylei; cited from earlier work
# C. canadensis = settings: taxon 2: C. canadensis; cited from earlier work
# C. helveticus = settings: taxon 10: C. helveticus; cited from earlier work
# C. concisus = settings: taxon 4: C. concisus; cited from earlier work
# C. showae = settings: taxon 21: C. showae; cited from earlier work
# C. curvus = settings: taxon 6: C. curvus; cited from earlier work
# C. mucosalis = settings: taxon 19: C. mucosalis; cited from earlier work
# [3] = test system: C. hyointestinalis subsp. lawsonii; settings: taxon 13: C. hyointestinalis subsp. lawsonii; cited from earlier work
# [4] = test system: novel campylobacter isolates; experiment: Disc diffusion susceptibility to nalidixic acid and cephalothin (30 μg discs); type: cell-based; settings: for susceptibility / resistance of the novel Campylobacter strains, in words: disc diffusion tests, 30 μg disc, novel Campylobacter strains overall; for Susceptibility to (30 μg disc): disc diffusion; for resistance (share of strains positive): taxon A: Campylobacter novel (n=23); on Susceptibility to (30 μg disc): key: S, susceptible; R, resistant
# C. fetus subsp. fetus = settings: taxon 7: C. fetus subsp. fetus; cited from earlier work
# C. rectus = settings: taxon 20: C. rectus; cited from earlier work
# [5] = test system: C. hyointestinalis subsp. hyointestinalis; settings: taxon 12: C. hyointestinalis subsp. hyointestinalis; cited from earlier work
# C. lanienae = settings: taxon 17: C. lanienae; cited from earlier work
compound,measurement,setting,value
CC(=O)OCC1=C(C(=O)O)N2C(=O)[C@@H](NC(=O)Cc3cccs3)[C@H]2SC1 [Cephalothin],resistance (share of strains positive),C. sputorum,"− (−, 0-10% of strains positive)"
same,resistance (share of strains positive),C. lari,"+ (+, 90-100% of strains positive)"
same,MIC50,[1],32 µg/mL
same,MIC90,[1],32 µg/mL
same,resistance (share of strains positive),C. cuniculurom,"(+) ((+), 75-89% strains positive)"
same,resistance (share of strains positive),[2],"− (−, 0-10% of strains positive)"
same,resistance (share of strains positive),C. gracilis,"− (−, 0-10% of strains positive)"
same,resistance (share of strains positive),C. hominus,"− (−, 0-10% of strains positive)"
same,resistance (share of strains positive),C. upsaliensis,"(−) ((−), 11-25% of strains positive)"
same,resistance (share of strains positive),C. jejuni subsp. Jejuni,"+ (+, 90-100% of strains positive)"
same,resistance (share of strains positive),C. coli,"+ (+, 90-100% of strains positive)"
same,resistance (share of strains positive),C. avium sp. Nov,"+ (+, 90-100% of strains positive)"
same,resistance (share of strains positive),C. insulaenigrae,"+ (+, 90-100% of strains positive)"
same,resistance (share of strains positive),C. jejuni subsp. Doylei,"− (−, 0-10% of strains positive)"
same,resistance (share of strains positive),C. canadensis,"− (−, 0-10% of strains positive)"
same,resistance (share of strains positive),C. helveticus,"− (−, 0-10% of strains positive)"
same,resistance (share of strains positive),C. concisus,"− (−, 0-10% of strains positive)"
same,resistance (share of strains positive),C. showae,"− (−, 0-10% of strains positive)"
same,resistance (share of strains positive),C. curvus,"− (−, 0-10% of strains positive)"
same,resistance (share of strains positive),C. mucosalis,"− (−, 0-10% of strains positive)"
same,resistance (share of strains positive),[3],"− (−, 0-10% of strains positive)"
same,"susceptibility / resistance of the novel Campylobacter strains, in words",[4],variable resistance; also recorded: some were sensitive
same,Susceptibility to (30 μg disc),[4]; strain Farm 1 2009/1,R
same,Susceptibility to (30 μg disc),[4]; strain Farm 1 2009/2,R
same,Susceptibility to (30 μg disc),[4]; strain Farm 1 2011/1,R
same,Susceptibility to (30 μg disc),[4]; strain Farm 1 2011/2,R
same,Susceptibility to (30 μg disc),[4]; strain Farm 1 2011/3,R
same,Susceptibility to (30 μg disc),[4]; strain Farm 1 2011/4,R
same,Susceptibility to (30 μg disc),[4]; strain Farm 1 2011/5,R
same,Susceptibility to (30 μg disc),[4]; strain Farm 1 2011/6,R
same,Susceptibility to (30 μg disc),[4]; strain Farm 2 2011/1,S
same,Susceptibility to (30 μg disc),[4]; strain Farm 2 2011/2,S
same,Susceptibility to (30 μg disc),[4]; strain Farm 2 2011/3,S
same,Susceptibility to (30 μg disc),[4]; strain Farm 2 2011/4,S
same,Susceptibility to (30 μg disc),[4]; strain Farm 3 2011/1,S
same,Susceptibility to (30 μg disc),[4]; strain Farm 3 2011/2,S
same,Susceptibility to (30 μg disc),[4]; strain Farm 3 2011/3,S
same,Susceptibility to (30 μg disc),[4]; strain Farm 4 2011/1,S
same,Susceptibility to (30 μg disc),[4]; strain Farm 4 2011/2,S
same,Susceptibility to (30 μg disc),[4]; strain Farm 4 2011/3,S
same,resistance (share of strains positive),[4],"V (V, 26-74% of strains positive)"
same,resistance (share of strains positive),C. fetus subsp. fetus,"− (−, 0-10% of strains positive)"
same,resistance (share of strains positive),C. rectus,"− (−, 0-10% of strains positive)"
same,resistance (share of strains positive),[5],"(−) ((−), 11-25% of strains positive)"
CCn1cc(C(=O)O)c(=O)c2ccc(C)nc21 [Nalidixic acid],resistance (share of strains positive),C. sputorum,"(+) ((+), 75-89% strains positive)"
same,resistance (share of strains positive),C. lari,"V (V, 26-74% of strains positive)"
same,MIC50,[1],4 µg/mL
same,MIC90,[1],8 µg/mL
same,resistance (share of strains positive),C. lanienae,"+ (+, 90-100% of strains positive)"
same,resistance (share of strains positive),C. cuniculurom,"V (V, 26-74% of strains positive)"
same,resistance (share of strains positive),[2],"V (V, 26-74% of strains positive)"
same,resistance (share of strains positive),C. gracilis,"V (V, 26-74% of strains positive)"
same,resistance (share of strains positive),C. hominus,"V (V, 26-74% of strains positive)"
same,resistance (share of strains positive),C. upsaliensis,"− (−, 0-10% of strains positive)"
same,resistance (share of strains positive),C. jejuni subsp. Jejuni,"− (−, 0-10% of strains positive)"
same,resistance (share of strains positive),C. coli,"− (−, 0-10% of strains positive)"
same,resistance (share of strains positive),C. avium sp. Nov,"− (−, 0-10% of strains positive)"
same,resistance (share of strains positive),C. insulaenigrae,"+ (+, 90-100% of strains positive)"
same,resistance (share of strains positive),C. jejuni subsp. Doylei,"− (−, 0-10% of strains positive)"
same,resistance (share of strains positive),C. canadensis,"V (V, 26-74% of strains positive)"
same,resistance (share of strains positive),C. helveticus,"− (−, 0-10% of strains positive)"
same,resistance (share of strains positive),C. concisus,"(+) ((+), 75-89% strains positive)"
same,resistance (share of strains positive),C. showae,"− (−, 0-10% of strains positive)"
same,resistance (share of strains positive),C. curvus,"+ (+, 90-100% of strains positive)"
same,resistance (share of strains positive),C. mucosalis,"(+) ((+), 75-89% strains positive)"
same,resistance (share of strains positive),[3],"+ (+, 90-100% of strains positive)"
same,"susceptibility / resistance of the novel Campylobacter strains, in words",[4],susceptible
same,Susceptibility to (30 μg disc),[4]; strain Farm 1 2009/1,S
same,Susceptibility to (30 μg disc),[4]; strain Farm 1 2009/2,S
same,Susceptibility to (30 μg disc),[4]; strain Farm 1 2011/1,S
same,Susceptibility to (30 μg disc),[4]; strain Farm 1 2011/2,S
same,Susceptibility to (30 μg disc),[4]; strain Farm 1 2011/3,S
same,Susceptibility to (30 μg disc),[4]; strain Farm 1 2011/4,S
same,Susceptibility to (30 μg disc),[4]; strain Farm 1 2011/5,S
same,Susceptibility to (30 μg disc),[4]; strain Farm 1 2011/6,S
same,Susceptibility to (30 μg disc),[4]; strain Farm 2 2011/1,S
same,Susceptibility to (30 μg disc),[4]; strain Farm 2 2011/2,S
same,Susceptibility to (30 μg disc),[4]; strain Farm 2 2011/3,S
same,Susceptibility to (30 μg disc),[4]; strain Farm 2 2011/4,S
same,Susceptibility to (30 μg disc),[4]; strain Farm 3 2011/1,S
same,Susceptibility to (30 μg disc),[4]; strain Farm 3 2011/2,S
same,Susceptibility to (30 μg disc),[4]; strain Farm 3 2011/3,S
same,Susceptibility to (30 μg disc),[4]; strain Farm 4 2011/1,S
same,Susceptibility to (30 μg disc),[4]; strain Farm 4 2011/2,S
same,Susceptibility to (30 μg disc),[4]; strain Farm 4 2011/3,S
same,resistance (share of strains positive),[4],"− (−, 0-10% of strains positive)"
same,resistance (share of strains positive),C. fetus subsp. fetus,"+ (+, 90-100% of strains positive)"
same,resistance (share of strains positive),C. rectus,"(+) ((+), 75-89% strains positive)"
same,resistance (share of strains positive),[5],"+ (+, 90-100% of strains positive)"
